# Legend:
# Assay in all cases: NMR-based dNTPase assay, activation by GTP
# Assay type in all cases: biochemical
# [1] = target: T1, SAMHD1_114–626 (HD domain construct of SAMHD1) (Homo sapiens, UniProt Q9Y3Z3, C522S)
# T1 construct: HD domain construct, residues 114-626, bacterial expression; nucleotide-dependent homotetramer; 10 cysteines
# Text: NMR-based dNTPase assay, activation by GTP on SAMHD1_114–626 (HD domain construct of SAMHD1) | properties of the C522S mutant were indistinguishable from those of the WT protein
# [2] = target: T2, SAMHD1_114–626 (HD domain construct of SAMHD1) (Homo sapiens, UniProt Q9Y3Z3, C341S)
# T2 construct: HD domain construct, residues 114-626, bacterial expression; nucleotide-dependent homotetramer; 10 cysteines
# Text: (§1) NMR-based dNTPase assay, activation by GTP on SAMHD1_114–626 (HD domain construct of SAMHD1) | EC50) values for GTP-mediated activation for C341S and C350S were also higher
# [3] = target: T3, SAMHD1_114–626 (HD domain construct of SAMHD1) (Homo sapiens, UniProt Q9Y3Z3, C350S)
# T3 construct: HD domain construct, residues 114-626, bacterial expression; nucleotide-dependent homotetramer; 10 cysteines
# Text: as §1
# [4] = target: T4, SAMHD1_114–626 (HD domain construct of SAMHD1) (Homo sapiens, UniProt Q9Y3Z3)
# T4 construct: HD domain construct, residues 114-626, bacterial expression; nucleotide-dependent homotetramer; 10 cysteines
# Method: NMR-based dNTPase assay, activation by GTP on SAMHD1_114–626 (HD domain construct of SAMHD1) | kcat and EC50^GTP parameters were determined by non-linear fitting
# T4 sequence (Q9Y3Z3 114-626): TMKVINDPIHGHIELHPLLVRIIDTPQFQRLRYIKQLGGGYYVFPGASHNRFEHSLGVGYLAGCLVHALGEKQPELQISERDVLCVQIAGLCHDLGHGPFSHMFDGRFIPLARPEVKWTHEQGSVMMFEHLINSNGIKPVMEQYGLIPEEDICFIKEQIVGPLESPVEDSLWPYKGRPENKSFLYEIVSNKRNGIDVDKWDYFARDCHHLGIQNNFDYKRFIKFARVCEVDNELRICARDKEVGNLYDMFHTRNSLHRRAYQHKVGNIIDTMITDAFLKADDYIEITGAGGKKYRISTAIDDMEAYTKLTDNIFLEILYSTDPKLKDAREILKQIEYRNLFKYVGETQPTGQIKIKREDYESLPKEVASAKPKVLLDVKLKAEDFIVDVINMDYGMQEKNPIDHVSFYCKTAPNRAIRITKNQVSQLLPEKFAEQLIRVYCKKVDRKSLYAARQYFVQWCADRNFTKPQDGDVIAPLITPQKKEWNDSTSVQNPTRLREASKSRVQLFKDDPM
# T3 sequence (Q9Y3Z3 114-626 C350S): as the sequence (Q9Y3Z3 114-626) above, with C237S counted along it
# T1 sequence (Q9Y3Z3 114-626 C522S): as the sequence (Q9Y3Z3 114-626) above, with C409S counted along it
# T2 sequence (Q9Y3Z3 114-626 C341S): as the sequence (Q9Y3Z3 114-626) above, with C228S counted along it
structure (smiles),measurement,setting,value
Nc1nc2c(ncn2[C@@H]2O[C@H](COP(=O)(O)OP(=O)(O)OP(=O)(O)O)[C@@H](O)[C@H]2O)c(=O)[nH]1 [GTP],EC50,[1],4.8 µM
same,EC50,[2],44.4 µM
same,EC50,[3],8.1 µM
same,EC50,[4],3.9 µM

# — publication PMC6067006, “Functionality of Redox-Active Cysteines Is Required for Restriction of Retroviral Replication by SAMHD1” (Cell reports, 2018)
